Measured values taken from ChEMBL document CHEMBL3046907, “Microwave-assisted synthesis of pyrido[1,2-a]benzimidazole derivatives of -aryloxyquinoline and their antimicrobial and antituberculosis activities” (2013).
In brackets after ≈: the same amount, converted by molar mass.

Assays:
Type in all cases: functional
[1] = system: Mycobacterium tuberculosis; test: Antitubercular activity against Mycobacterium tuberculosis H37Rv after 28 days by Lowenstein-Jensen method; details: 672 h
[2] = system: Mycobacterium tuberculosis; test: Growth inhibition of Mycobacterium tuberculosis H37Rv at 6.25 ug/ml after 28 days by Lowenstein-Jensen method; details: 672 h, read-out: GI
Clostridium tetani = test: Antibacterial activity against Clostridium tetani MTCC 449 after overnight incubation by broth microdilution method
Salmonella typhi = test: Antibacterial activity against Salmonella enterica subsp. enterica serovar Typhi MTCC 98 after overnight incubation by broth microdilution method
Streptococcus pneumoniae = test: Antibacterial activity against Streptococcus pneumoniae MTCC 1936 after overnight incubation by broth microdilution method
Bacillus subtilis = test: Antibacterial activity against Bacillus subtilis MTCC 441 after overnight incubation by broth microdilution method
Aspergillus fumigatus = test: Antifungal activity against Aspergillus fumigatus MTCC 3008 after overnight incubation by broth microdilution method
Escherichia coli = test: Antibacterial activity against Escherichia coli MTCC 443 after overnight incubation by broth microdilution method
Candida albicans = test: Antifungal activity against Candida albicans MTCC 227 after overnight incubation by broth microdilution method
Vibrio cholerae = test: Antibacterial activity against Vibrio cholerae MTCC 3906 after overnight incubation by broth microdilution method

SMILES | MIC [1] | inhibition of growth at 6.25 µg/mL [2] | MIC99 (Clostridium tetani) | MIC99 (Salmonella typhi) | MIC99 (Streptococcus pneumoniae) | MIC99 (Bacillus subtilis) | MIC99 (Aspergillus fumigatus) | MIC99 (Escherichia coli) | MIC99 (Candida albicans) | MIC99 (Vibrio cholerae)
NNC(=O)c1ccncc1 [ISONIAZID] | 0.2 µg/mL (≈ 1.46 µM) | 99% |  |  |  |  |  |  |  | 
COc1ccc2nc(Oc3ccc(C)cc3)c(-c3c(C#N)c(N)n4c(nc5ccccc54)c3C#N)cc2c1 |  | 58% | 125 µg/mL (≈ 252 µM) | 250 µg/mL (≈ 503 µM) | 500 µg/mL (≈ 1010 µM) | 200 µg/mL (≈ 403 µM) | > 1000 µg/mL | 125 µg/mL (≈ 252 µM) | 500 µg/mL (≈ 1010 µM) | 250 µg/mL (≈ 503 µM)
COc1ccc2nc(Oc3ccc(F)cc3)c(-c3c(C#N)c(N)n4c(nc5ccccc54)c3C#N)cc2c1 |  | 86% | 200 µg/mL (≈ 400 µM) | 500 µg/mL (≈ 999 µM) | 500 µg/mL (≈ 999 µM) | 200 µg/mL (≈ 400 µM) | 500 µg/mL (≈ 999 µM) | 200 µg/mL (≈ 400 µM) | > 1000 µg/mL | 200 µg/mL (≈ 400 µM)
Cc1ccc(Oc2nc3ccc(C)cc3cc2-c2c(C#N)c(N)n3c(nc4cc(C)ccc43)c2C#N)cc1 |  | 58% | 125 µg/mL (≈ 253 µM) | 250 µg/mL (≈ 506 µM) | 250 µg/mL (≈ 506 µM) | 200 µg/mL (≈ 404 µM) | 500 µg/mL (≈ 1010 µM) | 200 µg/mL (≈ 404 µM) | 500 µg/mL (≈ 1010 µM) | 125 µg/mL (≈ 253 µM)
COc1ccc(Oc2nc3ccc(C)cc3cc2-c2c(C#N)c(N)n3c(nc4cc(C)ccc43)c2C#N)cc1 |  | 25% | 100 µg/mL (≈ 196 µM) | 250 µg/mL (≈ 490 µM) | 125 µg/mL (≈ 245 µM) | 125 µg/mL (≈ 245 µM) | > 1000 µg/mL | 250 µg/mL (≈ 490 µM) | 1000 µg/mL (≈ 1960 µM) | 200 µg/mL (≈ 392 µM)
COc1ccc2nc(Oc3ccccc3)c(-c3c(C#N)c(N)n4c(nc5cc(C)ccc54)c3C#N)cc2c1 |  | 78% | 250 µg/mL (≈ 503 µM) | 100 µg/mL (≈ 201 µM) | 250 µg/mL (≈ 503 µM) | 250 µg/mL (≈ 503 µM) | 500 µg/mL (≈ 1010 µM) | 62.5 µg/mL (≈ 126 µM) | 1000 µg/mL (≈ 2010 µM) | 250 µg/mL (≈ 503 µM)
Cc1ccc2nc(Oc3ccc(F)cc3)c(-c3c(C#N)c(N)n4c(nc5cc(C)ccc54)c3C#N)cc2c1 | 12.5 µg/mL (≈ 25.1 µM) | 97% | 100 µg/mL (≈ 201 µM) | 200 µg/mL (≈ 401 µM) | 200 µg/mL (≈ 401 µM) | 250 µg/mL (≈ 501 µM) | > 1000 µg/mL | 200 µg/mL (≈ 401 µM) | > 1000 µg/mL | 100 µg/mL (≈ 201 µM)
COC1=CC(=O)C[C@@H](C)[C@]12Oc1c(Cl)c(OC)cc(OC)c1C2=O [GRISEOFULVIN] |  |  |  |  |  |  | 100 µg/mL (≈ 283 µM) |  | 500 µg/mL (≈ 1420 µM) | 
COc1ccc(Oc2nc3ccc(C)cc3cc2-c2c(C#N)c(N)n3c(nc4ccccc43)c2C#N)cc1 |  | 62% | 500 µg/mL (≈ 1010 µM) | 200 µg/mL (≈ 403 µM) | 100 µg/mL (≈ 201 µM) | 125 µg/mL (≈ 252 µM) | > 1000 µg/mL | 250 µg/mL (≈ 503 µM) | 1000 µg/mL (≈ 2010 µM) | 200 µg/mL (≈ 403 µM)
COc1ccc(Oc2nc3ccc(OC)cc3cc2-c2c(C#N)c(N)n3c(nc4cc(C)ccc43)c2C#N)cc1 |  | 70% | 200 µg/mL (≈ 380 µM) | 250 µg/mL (≈ 475 µM) | 200 µg/mL (≈ 380 µM) | 100 µg/mL (≈ 190 µM) | > 1000 µg/mL | 200 µg/mL (≈ 380 µM) | 500 µg/mL (≈ 950 µM) | 125 µg/mL (≈ 237 µM)
COc1ccc(Oc2nc3ccc(OC)cc3cc2-c2c(C#N)c(N)n3c(nc4ccccc43)c2C#N)cc1 |  | 79% | 200 µg/mL (≈ 390 µM) | 200 µg/mL (≈ 390 µM) | 500 µg/mL (≈ 976 µM) | 250 µg/mL (≈ 488 µM) | 250 µg/mL (≈ 488 µM) | 125 µg/mL (≈ 244 µM) | > 1000 µg/mL | 125 µg/mL (≈ 244 µM)
N#Cc1c(-c2cc3ccccc3nc2Oc2ccccc2)c(C#N)c2nc3ccccc3n2c1N |  | 80% | 100 µg/mL (≈ 221 µM) | 250 µg/mL (≈ 553 µM) | 62.5 µg/mL (≈ 138 µM) | 100 µg/mL (≈ 221 µM) | 500 µg/mL (≈ 1110 µM) | 250 µg/mL (≈ 553 µM) | 1000 µg/mL (≈ 2210 µM) | 200 µg/mL (≈ 442 µM)
Cc1ccc(Oc2nc3ccc(C)cc3cc2-c2c(C#N)c(N)n3c(nc4ccccc43)c2C#N)cc1 |  | 32% | 500 µg/mL (≈ 1040 µM) | 125 µg/mL (≈ 260 µM) | 250 µg/mL (≈ 520 µM) | 100 µg/mL (≈ 208 µM) | > 1000 µg/mL | 100 µg/mL (≈ 208 µM) | 1000 µg/mL (≈ 2080 µM) | 100 µg/mL (≈ 208 µM)
N#Cc1c(-c2cc3ccccc3nc2Oc2ccc(F)cc2)c(C#N)c2nc3ccccc3n2c1N |  | 75% | 200 µg/mL (≈ 425 µM) | 250 µg/mL (≈ 531 µM) | 125 µg/mL (≈ 266 µM) | 250 µg/mL (≈ 531 µM) | 500 µg/mL (≈ 1060 µM) | 200 µg/mL (≈ 425 µM) | 500 µg/mL (≈ 1060 µM) | 250 µg/mL (≈ 531 µM)
Cc1ccc(Oc2nc3ccccc3cc2-c2c(C#N)c(N)n3c(nc4ccccc43)c2C#N)cc1 |  | 52% | 250 µg/mL (≈ 536 µM) | 100 µg/mL (≈ 214 µM) | 125 µg/mL (≈ 268 µM) | 250 µg/mL (≈ 536 µM) | 250 µg/mL (≈ 536 µM) | 100 µg/mL (≈ 214 µM) | > 1000 µg/mL | 100 µg/mL (≈ 214 µM)
